The results in this text go back to patent US10155766B2, “Pyrazolopyrimidine antibacterial agents” (priority 2016, dated 2018).

In series [1] the test system is Burkholderia thailandensis (E 264). Put plainly: microbe, parasite or virus in culture. The series is classed as cell-based. To be noted: for zone of inhibition at 100 µM / zone of inhibition at 500 µM / zone of inhibition at 1000 µM: Burkholderia thailandensis, read-out: Zone of inhibition (diameter, in millimeter) B. thailandensis; for zone of inhibition at 100 µM: Conc. 0.1 mM; for zone of inhibition at 500 µM: Conc. 0.5 mM; for zone of inhibition at 1000 µM: Conc. 1.0 mM.

Series [2] concerns Pseudomonas aeruginosa (ATCC 27853). Nature of the series: microbe, parasite or virus in culture. The series is classed as cell-based. The following applies: Pseudomonas aeruginosa, ATCC27853, read-out: Zone of inhibition (diameter, in millimeter) P. aeruginosa; for zone of inhibition at 100 µM: Conc. 0.1 mM; for zone of inhibition at 500 µM: Conc. 0.5 mM; for zone of inhibition at 1000 µM: Conc. 1.0 mM.

For a further series, the target named is T1, BtIspD (Burkholderia thailandensis, UniProt Q2SWT6).
T1 construct: 6xHis (AVA0421 vector, 3C-cleavable) (N, cleaved yes); made in house; host or cells: E. coli BL21(DE3)R3 Rosetta Oxford
T1 sequence (Q2SWT6 1-236): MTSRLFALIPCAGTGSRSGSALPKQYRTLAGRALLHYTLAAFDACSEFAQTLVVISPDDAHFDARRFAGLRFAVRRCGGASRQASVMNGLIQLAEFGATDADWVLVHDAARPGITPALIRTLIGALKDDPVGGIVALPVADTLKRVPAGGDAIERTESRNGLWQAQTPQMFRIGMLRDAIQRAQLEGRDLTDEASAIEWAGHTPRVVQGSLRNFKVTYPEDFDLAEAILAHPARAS
The series is classed as binding.

What is called melting point is the temperature of the solid-liquid transition. In the case of `Cn1ncc2c(NCCc3c[nH]c4ccccc34)ncnc21`, the melting point lay within 183 to 185 °C.
As a reminder, the zone of inhibition is the extent of the growth-free halo in a diffusion test. In turn, `CC(C)(C)n1ncc2c(NCCO)ncnc21` [Compound 4] had a melting point of 75 to 77 °C. In series [1], the zone of inhibition at 100 µM was 0 mm, the zone of inhibition at 500 µM was found to be 8 mm and the zone of inhibition at 1000 µM was 12 mm. Besides, in series [2], the zone of inhibition at 100 µM is 0 mm, the zone of inhibition at 500 µM was 12 mm and the zone of inhibition at 1000 µM amounted to 20 mm.
In turn, `CCOC(=O)CNc1ncnc2c1cnn2C` [Compound 5] displayed a melting point of 141 to 142 °C. Moreover, in series [1], the zone of inhibition at 100 µM stood at 0 mm, the zone of inhibition at 500 µM is 8 mm and the zone of inhibition at 1000 µM was 12 mm. In series [2], the zone of inhibition at 100 µM is 0 mm, the zone of inhibition at 500 µM was 0 mm and the zone of inhibition at 1000 µM was found to be 13 mm.
As to `CC(C)Nc1ncnc2c1cnn2C` [Compound 6], the melting point was in the range of 101 to 103 °C. In series [1], the zone of inhibition at 100 µM came out at 0 mm, the zone of inhibition at 500 µM stood at 13 mm and the zone of inhibition at 1000 µM was found to be 21 mm. Besides, in series [2], the zone of inhibition at 100 µM stood at 0 mm, the zone of inhibition at 500 µM was 0 mm and the zone of inhibition at 1000 µM came to 10 mm.
`Cn1ncc2c(NCc3ccco3)ncnc21` [Compound 7] registered a melting point of 141 to 143 °C. In addition, in series [1], the zone of inhibition at 100 µM is 0 mm, the zone of inhibition at 500 µM was 0 mm and the zone of inhibition at 1000 µM stood at 20 mm. In series [2], the zone of inhibition at 100 µM came out at 0 mm, the zone of inhibition at 500 µM was determined as 0 mm and the zone of inhibition at 1000 µM was found to be 0 mm.
Turning to `CC(C)(C)n1ncc2c(NCc3ccco3)ncnc21` [Compound 8], the melting point lay within 101 to 103 °C. Further, in series [1], the zone of inhibition at 100 µM stood at 0 mm, the zone of inhibition at 500 µM was determined as 12 mm and the zone of inhibition at 1000 µM was found to be 14 mm. In series [2], the zone of inhibition at 100 µM was found to be 0 mm, the zone of inhibition at 500 µM was determined as 6 mm and the zone of inhibition at 1000 µM stood at 12 mm.
Regarding `Cn1ncc2c(NCc3ccccc3)ncnc21` [Compound 9], in series [1], the zone of inhibition at 100 µM stood at 0 mm, the zone of inhibition at 500 µM is 0 mm and the zone of inhibition at 1000 µM is 12 mm. For the same molecule, in series [2], the zone of inhibition at 100 µM was 0 mm, the zone of inhibition at 500 µM is 0 mm and the zone of inhibition at 1000 µM amounted to 0 mm.
Consider `C[C@H](Nc1ncnc2c1cnn2C)c1ccccc1` [Compound 10], for which the melting point is 201 to 203 °C. In series [1], the zone of inhibition at 100 µM came to 0 mm, the zone of inhibition at 500 µM was 11 mm and the zone of inhibition at 1000 µM stood at 19 mm. In series [2], the zone of inhibition at 100 µM amounted to 0 mm, the zone of inhibition at 500 µM is 8 mm and the zone of inhibition at 1000 µM was found to be 14 mm.
As for `CC(C)(C)n1ncc2c(NCc3ccccc3)ncnc21` [Compound 11], the melting point lay in the range of 158 to 160 °C. For the same molecule, in series [1], the zone of inhibition at 100 µM turned out to be 0 mm, the zone of inhibition at 500 µM amounted to 12 mm and the zone of inhibition at 1000 µM turned out to be 18 mm. In addition, in series [2], the zone of inhibition at 100 µM turned out to be 0 mm, the zone of inhibition at 500 µM is 0 mm and the zone of inhibition at 1000 µM was 0 mm.
`Cn1ncc2c(NCc3ccccc3F)ncnc21` [Compound 13] came in with a melting point of 184 to 185 °C. Further, in series [1], the zone of inhibition at 100 µM came to 0 mm, the zone of inhibition at 500 µM stood at 8 mm and the zone of inhibition at 1000 µM stood at 13 mm. In addition, in series [2], the zone of inhibition at 100 µM turned out to be 0 mm, the zone of inhibition at 500 µM was found to be 12 mm and the zone of inhibition at 1000 µM turned out to be 18 mm.
Turning to `CC(C)(C)n1ncc2c(NCc3cccc([N+](=O)[O-])c3)ncnc21` [Compound 15], the melting point was 135 to 137 °C. Moreover, in series [1], the zone of inhibition at 100 µM came out at 0 mm, the zone of inhibition at 500 µM is 12 mm and the zone of inhibition at 1000 µM is 16 mm. In series [2], the zone of inhibition at 100 µM amounted to 0 mm, the zone of inhibition at 500 µM came to 13 mm and the zone of inhibition at 1000 µM worked out at 17 mm.
Take `Cn1ncc2c(NCc3ccc(F)cc3)ncnc21` [Compound 16]: in series [1], the zone of inhibition at 100 µM amounted to 0 mm, the zone of inhibition at 500 µM was 9 mm and the zone of inhibition at 1000 µM stood at 18 mm. In series [2], the zone of inhibition at 100 µM is 0 mm, the zone of inhibition at 500 µM is 12 mm and the zone of inhibition at 1000 µM stood at 18 mm.
`CC(C)(C)n1ncc2c(NCc3ccc(Cl)c(Cl)c3)ncnc21` [Compound 19]: the melting point was 120 to 123 °C. Moreover, in series [1], the zone of inhibition at 100 µM amounted to 0 mm, the zone of inhibition at 500 µM was determined as 16 mm and the zone of inhibition at 1000 µM was found to be 20 mm. In addition, in series [2], the zone of inhibition at 100 µM is 0 mm, the zone of inhibition at 500 µM is 12 mm and the zone of inhibition at 1000 µM turned out to be 16 mm.
Molecule `Cn1ncc2c(NCCc3ccccc3)ncnc21` [Compound 20] showed a melting point of 101 to 103 °C. In series [1], the zone of inhibition at 100 µM came out at 0 mm, the zone of inhibition at 500 µM stood at 9 mm and the zone of inhibition at 1000 µM amounted to 20 mm. Moreover, in series [2], the zone of inhibition at 100 µM was 0 mm, the zone of inhibition at 500 µM worked out at 0 mm and the zone of inhibition at 1000 µM worked out at 0 mm.
The molecule `Cn1ncc2c(NCCc3ccccc3F)ncnc21` [Compound 21] returned a melting point of 139 to 140 °C. Further, in series [1], the zone of inhibition at 100 µM stood at 0 mm, the zone of inhibition at 500 µM was found to be 12 mm and the zone of inhibition at 1000 µM was determined as 16 mm. In addition, in series [2], the zone of inhibition at 100 µM amounted to 0 mm, the zone of inhibition at 500 µM was 8 mm and the zone of inhibition at 1000 µM was 16 mm.
The molecule `Cn1ncc2c(NCCc3cccc(F)c3)ncnc21` [Compound 22] returned a melting point of 109 to 110 °C. Also, in series [1], the zone of inhibition at 100 µM worked out at 0 mm, the zone of inhibition at 500 µM came out at 11 mm and the zone of inhibition at 1000 µM amounted to 14 mm. Also, in series [2], the zone of inhibition at 100 µM turned out to be 0 mm, the zone of inhibition at 500 µM stood at 0 mm and the zone of inhibition at 1000 µM stood at 8 mm.
As to `Cn1ncc2c(NCCc3ccc(F)cc3)ncnc21` [Compound 23], the melting point was in the range of 106 to 107 °C. In addition, in series [1], the zone of inhibition at 100 µM amounted to 0 mm, the zone of inhibition at 500 µM came to 12 mm and the zone of inhibition at 1000 µM was 22 mm. Further, in series [2], the zone of inhibition at 100 µM was 0 mm, the zone of inhibition at 500 µM was found to be 9 mm and the zone of inhibition at 1000 µM was 17 mm.
With `Cn1ncc2c(NCCc3ccc(Cl)cc3)ncnc21` [Compound 24], in series [1], the zone of inhibition at 100 µM came to 0 mm, the zone of inhibition at 500 µM came to 10 mm and the zone of inhibition at 1000 µM amounted to 13 mm. For the same molecule, in series [2], the zone of inhibition at 100 µM was determined as 0 mm, the zone of inhibition at 500 µM came to 0 mm and the zone of inhibition at 1000 µM worked out at 10 mm.
For the molecule `Cn1ncc2c(NCCc3c(F)cccc3Cl)ncnc21` [Compound 26], the melting point lay within 195 to 196 °C. For the same molecule, in series [1], the zone of inhibition at 100 µM came to 0 mm, the zone of inhibition at 500 µM is 13 mm and the zone of inhibition at 1000 µM was 21 mm. In series [2], the zone of inhibition at 100 µM came to 0 mm, the zone of inhibition at 500 µM amounted to 11 mm and the zone of inhibition at 1000 µM amounted to 19 mm. Besides, at BtIspD, the “STD-NMR binding to BtIspD (in words)” value is on record as “strongest binders” and the “change of STD binding to BtIspD upon addition of CDP” value was “large decrease”.
As for `CC(C)(C)n1ncc2c(NCCc3c(F)cccc3Cl)ncnc21` [Compound 27], the melting point fell in the range of 140 to 142 °C. Moreover, in series [1], the zone of inhibition at 100 µM came out at 0 mm, the zone of inhibition at 500 µM was determined as 12 mm and the zone of inhibition at 1000 µM turned out to be 16 mm. For the same molecule, in series [2], the zone of inhibition at 100 µM is 0 mm, the zone of inhibition at 500 µM turned out to be 0 mm and the zone of inhibition at 1000 µM came to 0 mm. Further, on BtIspD, the “STD-NMR binding to BtIspD (in words)” value is listed as “strongest binders” and the “change of STD binding to BtIspD upon addition of CDP” value is “large decrease”.
As for `CC(C)(C)n1ncc2c(NCCc3c(Cl)cccc3Cl)ncnc21` [Compound 28], the melting point fell in the range of 154 to 156 °C. In addition, in series [1], the zone of inhibition at 100 µM amounted to 0 mm, the zone of inhibition at 500 µM was determined as 11 mm and the zone of inhibition at 1000 µM turned out to be 18 mm. For the same molecule, in series [2], the zone of inhibition at 100 µM came to 0 mm, the zone of inhibition at 500 µM is 0 mm and the zone of inhibition at 1000 µM was 0 mm.
Turning to `NC[C@H]1O[C@H](O[C@H]2[C@H](O)[C@@H](O[C@H]3O[C@H](CO)[C@@H](O)[C@H](N)[C@H]3O)[C@H](N)C[C@@H]2N)[C@H](O)[C@@H](O)[C@@H]1O` [Kanamycin, reference compound], in series [1], the “concentration at which inhibitory activity against B. thailandensis is shown” value is 48.5 µg/mL, the zone of inhibition at 100 µM was determined as 6 mm, the zone of inhibition at 500 µM is 22 mm and the zone of inhibition at 1000 µM was determined as 30 mm. Moreover, in series [2], the zone of inhibition at 100 µM was 0 mm, the zone of inhibition at 500 µM is 0 mm and the zone of inhibition at 1000 µM was 0 mm.
